Reference: ChEMBL document CHEMBL3044945, “Synthesis of 1,3,5-trisubstituted pyrazoline nucleus containing compounds and screening for antimicrobial activity” (2012)

Legend:
Assay type in all cases: functional
Escherichia coli [1] = test: Antibacterial activity against Escherichia coli MTCC 1573 at 1000 ug/ml after 48 hr by cup-plate method; settings: MTCC 1573, 48 h, read-out: DIZ
Escherichia coli [2] = test: Antibacterial activity against Escherichia coli MTCC 1573 at 750 ug/ml after 48 hr by cup-plate method; settings: MTCC 1573, 48 h, read-out: DIZ
Micrococcus luteus [3] = test: Antibacterial activity against Micrococcus luteus MTCC 1538 at 1000 ug/ml after 48 hr by cup-plate method; settings: MTCC 1538, 48 h, read-out: DIZ
Micrococcus luteus [4] = test: Antibacterial activity against Micrococcus luteus MTCC 1538 at 750 ug/ml after 48 hr by cup-plate method; settings: MTCC 1538, 48 h, read-out: DIZ
Escherichia coli [5] = test: Antibacterial activity against Escherichia coli MTCC 1573 at 500 ug/ml after 48 hr by cup-plate method; settings: MTCC 1573, 48 h, read-out: DIZ
Escherichia coli [6] = test: Antibacterial activity against Escherichia coli MTCC 1573 at 100 ug/ml after 48 hr by cup-plate method; settings: MTCC 1573, 48 h, read-out: DIZ
Escherichia coli [7] = test: Antibacterial activity against Escherichia coli MTCC 1573 at 250 ug/ml after 48 hr by cup-plate method; settings: MTCC 1573, 48 h, read-out: DIZ
Micrococcus luteus [8] = test: Antibacterial activity against Micrococcus luteus MTCC 1538 at 1250 ug/ml after 48 hr by cup-plate method; settings: MTCC 1538, 48 h, read-out: DIZ
Micrococcus luteus [9] = test: Antibacterial activity against Micrococcus luteus MTCC 1538 at 500 ug/ml after 48 hr by cup-plate method; settings: MTCC 1538, 48 h, read-out: DIZ
Micrococcus luteus [10] = test: Antibacterial activity against Micrococcus luteus MTCC 1538 at 250 ug/ml after 48 hr by cup-plate method; settings: MTCC 1538, 48 h, read-out: DIZ
Micrococcus luteus [11] = test: Antibacterial activity against Micrococcus luteus MTCC 1538 at 100 ug/ml after 48 hr by cup-plate method; settings: MTCC 1538, 48 h, read-out: DIZ
Bacillus pumilus [12] = test: Antibacterial activity against Bacillus pumilus MTCC 1456 at 1250 ug/ml after 48 hr by cup-plate method; settings: MTCC 1456, 48 h, read-out: DIZ
Bacillus pumilus [13] = test: Antibacterial activity against Bacillus pumilus MTCC 1456 at 1000 ug/ml after 48 hr by cup-plate method; settings: MTCC 1456, 48 h, read-out: DIZ
Bacillus pumilus [14] = test: Antibacterial activity against Bacillus pumilus MTCC 1456 at 750 ug/ml after 48 hr by cup-plate method; settings: MTCC 1456, 48 h, read-out: DIZ
Bacillus pumilus [15] = test: Antibacterial activity against Bacillus pumilus MTCC 1456 at 500 ug/ml after 48 hr by cup-plate method; settings: MTCC 1456, 48 h, read-out: DIZ
Bacillus pumilus [16] = test: Antibacterial activity against Bacillus pumilus MTCC 1456 at 250 ug/ml after 48 hr by cup-plate method; settings: MTCC 1456, 48 h, read-out: DIZ
Bacillus pumilus [17] = test: Antibacterial activity against Bacillus pumilus MTCC 1456 at 100 ug/ml after 48 hr by cup-plate method; settings: MTCC 1456, 48 h, read-out: DIZ
Staphylococcus aureus [18] = test: Antibacterial activity against Staphylococcus aureus MTCC 1430 at 1250 ug/ml after 48 hr by cup-plate method; settings: MTCC 1430, 48 h, read-out: DIZ
Staphylococcus aureus [19] = test: Antibacterial activity against Staphylococcus aureus MTCC 1430 at 1000 ug/ml after 48 hr by cup-plate method; settings: MTCC 1430, 48 h, read-out: DIZ
Staphylococcus aureus [20] = test: Antibacterial activity against Staphylococcus aureus MTCC 1430 at 750 ug/ml after 48 hr by cup-plate method; settings: MTCC 1430, 48 h, read-out: DIZ
Staphylococcus aureus [21] = test: Antibacterial activity against Staphylococcus aureus MTCC 1430 at 500 ug/ml after 48 hr by cup-plate method; settings: MTCC 1430, 48 h, read-out: DIZ
Staphylococcus aureus [22] = test: Antibacterial activity against Staphylococcus aureus MTCC 1430 at 250 ug/ml after 48 hr by cup-plate method; settings: MTCC 1430, 48 h, read-out: DIZ
Pseudomonas aeruginosa [23] = test: Antibacterial activity against Pseudomonas aeruginosa MTCC 424 at 1250 ug/ml after 48 hr by cup-plate method; settings: MTCC 424, 48 h, read-out: DIZ
Pseudomonas aeruginosa [24] = test: Antibacterial activity against Pseudomonas aeruginosa MTCC 424 at 1000 ug/ml after 48 hr by cup-plate method; settings: MTCC 424, 48 h, read-out: DIZ
Pseudomonas aeruginosa [25] = test: Antibacterial activity against Pseudomonas aeruginosa MTCC 424 at 750 ug/ml after 48 hr by cup-plate method; settings: MTCC 424, 48 h, read-out: DIZ
Pseudomonas aeruginosa [26] = test: Antibacterial activity against Pseudomonas aeruginosa MTCC 424 at 500 ug/ml after 48 hr by cup-plate method; settings: MTCC 424, 48 h, read-out: DIZ
Pseudomonas aeruginosa [27] = test: Antibacterial activity against Pseudomonas aeruginosa MTCC 424 at 250 ug/ml after 48 hr by cup-plate method; settings: MTCC 424, 48 h, read-out: DIZ
Pseudomonas aeruginosa [28] = test: Antibacterial activity against Pseudomonas aeruginosa MTCC 424 at 100 ug/ml after 48 hr by cup-plate method; settings: MTCC 424, 48 h, read-out: DIZ

Q: How did the zone of inhibition at 1000 µg/mL (Escherichia coli [1]) turn out when O=[N+]([O-])c1ccc(C2CC(c3cccc4ccccc34)=NN2c2ccc([N+](=O)[O-])cc2[N+](=O)[O-])cc1 (stereo not drawn) was run?
A: 14 mm

Q: What about the zone of inhibition at 750 µg/mL (Escherichia coli [2]) of the same molecule?
A: 12 mm

Q: And the zone of inhibition at 1000 µg/mL (Micrococcus luteus [3])?
A: 12 mm

Q: What about the zone of inhibition at 750 µg/mL (Micrococcus luteus [4]) of the same molecule?
A: 11 mm

Q: And the zone of inhibition at 500 µg/mL (Escherichia coli [5])?
A: 11 mm

Q: What about the zone of inhibition at 100 µg/mL (Escherichia coli [6]) of the same molecule?
A: 9 mm

Q: And the zone of inhibition at 250 µg/mL (Escherichia coli [7])?
A: 10 mm

Q: And the zone of inhibition at 1250 µg/mL (Micrococcus luteus [8])?
A: 14 mm

Q: What about the zone of inhibition at 500 µg/mL (Micrococcus luteus [9]) of the same molecule?
A: 10 mm

Q: What about the zone of inhibition at 250 µg/mL (Micrococcus luteus [10]) of the same molecule?
A: 9 mm

Q: And the zone of inhibition at 100 µg/mL (Micrococcus luteus [11])?
A: 8 mm

Q: And the zone of inhibition at 1250 µg/mL (Bacillus pumilus [12])?
A: 24 mm

Q: And the zone of inhibition at 1000 µg/mL (Bacillus pumilus [13])?
A: 22 mm

Q: What about the zone of inhibition at 750 µg/mL (Bacillus pumilus [14]) of the same molecule?
A: 20 mm

Q: What about the zone of inhibition at 500 µg/mL (Bacillus pumilus [15]) of the same molecule?
A: 18 mm

Q: What about the zone of inhibition at 250 µg/mL (Bacillus pumilus [16]) of the same molecule?
A: 11 mm

Q: And the zone of inhibition at 100 µg/mL (Bacillus pumilus [17])?
A: 10 mm

Q: What about the zone of inhibition at 1250 µg/mL (Staphylococcus aureus [18]) of the same molecule?
A: 14 mm

Q: What about the zone of inhibition at 1000 µg/mL (Staphylococcus aureus [19]) of the same molecule?
A: 12 mm

Q: What about the zone of inhibition at 750 µg/mL (Staphylococcus aureus [20]) of the same molecule?
A: 10 mm

Q: And the zone of inhibition at 500 µg/mL (Staphylococcus aureus [21])?
A: 9 mm

Q: And the zone of inhibition at 250 µg/mL (Staphylococcus aureus [22])?
A: 8 mm

Q: And the zone of inhibition at 1250 µg/mL (Pseudomonas aeruginosa [23])?
A: 17 mm

Q: And the zone of inhibition at 1000 µg/mL (Pseudomonas aeruginosa [24])?
A: 14 mm

Q: What about the zone of inhibition at 750 µg/mL (Pseudomonas aeruginosa [25]) of the same molecule?
A: 13 mm

Q: What about the zone of inhibition at 500 µg/mL (Pseudomonas aeruginosa [26]) of the same molecule?
A: 12 mm

Q: And the zone of inhibition at 250 µg/mL (Pseudomonas aeruginosa [27])?
A: 11 mm

Q: What about the zone of inhibition at 100 µg/mL (Pseudomonas aeruginosa [28]) of the same molecule?
A: 10 mm
